Assay results reported in patent US8299074B2, “P38 MAP kinase inhibitors” (RespiVert Ltd., priority 2008, dated 2012).
One block for each compound: values may come before it.

Assays:
[1] = system: Dunkin-Hartley guinea-pigs; assay: Ovalbumin challenge/parainfluenza infection model; assay type: in vivo; conditions: nebulised 1.5 mg per day; sensitized animals treated with PIV3 medium; initial studies
mice = assay: LPS-induced neutrophils accumulation in mice; assay type: in vivo
A/J mice = assay: Cigarette smoke model; assay type: in vivo; conditions: 50 μg/mL (35 μl, bid) intra-nasally, cigarette smoke exposed mice
Method: Cigarette Smoke Model A/J mice (males, 5 weeks old) were exposed to cigarette smoke (4% cigarette smoke, diluted with compressed air) for 30 min/day for 11 days using a Tobacco Smoke Inhalation Experiment System for small animals (Model SIS-CS; Sibata Scientific Technology, Tokyo, Japan). Test substances were given intra-nasally (35 μL of solution in 50% DMSO/PBS) and therapeutically twice daily for 3 days after the final cigarette smoke exposure. Twelve hours after the last dosing, animals were anesthetized, the trachea cannulated and bronchoalveolar lavage fluid (BALF) was collected.

BEAS2B cells = assay: Poly I:C-induced ICAM-1 induction in BEAS2B cells; assay type: cell-based; conditions: Homo sapiens, BEAS-2B; Table 3; read-out: BEAS2B (polyIC) ICAM1 IC50
Summary of the method: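 Poly I:C (1 ug/ml) transfected into BEAS2B cells after 2 h compound pre-incubation. Surface ICAM-1 measured by cell-based ELISA 18 h post-transfection (HRP, OD450–655), corrected for cell number by OD595.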

[2] = system: Differentiated U937 cells; assay: MTT assay (cell viability); assay type: cell-based, human; conditions: loss of cell viability at 1 μg/ml
Summary of the method: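 Differentiated U937 cells pre-incubated with compound 4 h in 5% FCS or 24 h in 10% FCS; MTT read at 550 nm after DMSO solubilisation. Percentage loss of viability relative to 0.5% DMSO vehicle; apparent increases appear as negative percentages.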

THP-1 cells = assay: LPS-induced TNF alpha release in THP-1 cells; assay type: cell-based; conditions: Homo sapiens, THP-1; Table 3; read-out: THP-1 (LPS) TNFα IC50
Method: LPS-Induced TNF Alpha Release in THP-1 Cells: Potency […] Coli; O111:B4, Sigma) for 4 hr and the supernatant collected for determination of TNFα concentration by sandwich ELISA (Duo-set, R&D systems). The inhibition of TNFα production was calculated at each concentration by comparison with vehicle control.

U937 cells [3] = assay: LPS-induced IL-8 release in U937 cells; assay type: cell-based; conditions: Homo sapiens; Table 3; read-out: DU937 (LPS) IL-8 IC50
Summary of the method: (§1)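 U937 cells differentiated with PMA (100 ng/ml) for 48 to 72 hours, pre-treated with compound for 2 hrs, then stimulated with E. coli O111:B4 LPS for 4 hrs. Supernatant TNFα and IL-8 measured by sandwich ELISA; inhibition at each concentration versus vehicle control.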

U937 cells [4] = assay: LPS-induced TNF alpha release in U937 cells; assay type: cell-based; conditions: Homo sapiens; read-out: DU937 (LPS) TNFα REC50
Summary of the method: as §1

p38 MAPK alpha (MAPK14) = biological target: T1, p38 MAPK alpha (MAPK14) (Homo sapiens, UniProt Q16539); assay: Enzyme inhibition assay, p38 MAPK alpha (FRET, Z-LYTE, via MAPKAP-K2); assay type: biochemical; conditions: Table 3; read-out: Enzyme p38α IC50
T1 construct: purchased Invitrogen
T1 sequence (Q16539 whole entry): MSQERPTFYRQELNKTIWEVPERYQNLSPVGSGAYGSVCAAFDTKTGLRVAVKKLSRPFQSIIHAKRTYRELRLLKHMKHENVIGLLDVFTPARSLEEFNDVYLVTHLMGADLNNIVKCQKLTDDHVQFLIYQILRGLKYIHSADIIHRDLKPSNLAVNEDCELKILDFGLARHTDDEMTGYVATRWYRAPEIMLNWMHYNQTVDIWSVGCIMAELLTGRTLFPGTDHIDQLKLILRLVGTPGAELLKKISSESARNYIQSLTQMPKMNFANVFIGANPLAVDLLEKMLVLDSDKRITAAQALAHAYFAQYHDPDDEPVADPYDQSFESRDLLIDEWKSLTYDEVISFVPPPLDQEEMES

p38 MAPKs or JNKs = conditions: Kuma, Y. (2005); cited from earlier work

Compound: CCC(=O)O[C@]1(C(=O)SCF)[C@H](C)C[C@H]2[C@@H]3C[C@H](F)C4=CC(=O)C=C[C@]4(C)[C@@]3(F)[C@@H](O)C[C@@]21C [fluticasone propionate]
ovalbumin-mediated lung function changes [1]: inhibited ovalbumin-mediated lung function changes
inhibition of LPS-induced neutrophil accumulation (mice; 50 μg/mL (35 μl, bid)): > 80%
macrophage accumulation into airways (A/J mice): did not inhibit
neutrophil accumulation into airways (A/J mice): did not inhibit

IC50 (THP-1 cells): < 10 nM
IC50 (U937 cells [3]): < 5000 nM
EC50 (U937 cells [4]): < 10 nM
IC50 (p38 MAPK alpha (MAPK14)): < 5000 nM
Compound: Cc1ccc(-n2nc(C(C)(C)C)cc2NC(=O)Nc2ccc(Oc3ccnc(NC(=O)N4CCOCC4)c3)c3ccccc23)cc1 [Example 42, N-(4-(4-(3-(3-tert-Butyl-1-p-tolyl-1H-pyrazol-5-yl)ureido)naphthalen-1-yloxy)pyridin-2-yl)morpholine-4-carboxamide]
IC50 (BEAS2B cells): < 10 nM
Neutrophil numbers in BAL (mice; 0.2 mg/ml intra tracheal, 8 hr pre-dose, BALF 8 h after LPS, mean ± SEM, n = 8): 8.60 ± 1.59 ×10^5/mL
DU937 (cell viability) MTT assay 4 h ([2]; Table 3, first MTT column): − (<=30%)
DU937 (cell viability) MTT assay 4 h ([2]; Table 3, second MTT column): − (<=30%)

Compound: Cc1ccc(-n2nc(C(C)(C)C)cc2NC(=O)Nc2ccc(OCCN3CCOCC3)c3ccccc23)cc1 [BIRB 796]
phosphorylation of p38 MAPKs or JNKs by the upstream kinase MKK6 or MKK4 (p38 MAPKs or JNKs): impaired the phosphorylation of p38 MAPKs or JNKs
